# “Also recorded” adds a separate entry of the source.
# Assays:
# [1] = test system: breast adenocarcinoma (MCF7) cells; test: Antiproliferative MTT assay, MCF-7; assay type: cell-based, human; conditions: for IC50: Homo sapiens, MCF7, 72 h incubation, MTT, mean ± SD
# Method in brief: (§1)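 Cancer lines seeded at 3000 cells/well and HFF fibroblasts at 5000 cells/well in DMEM or MEM with 10% FBS, then exposed to compounds (0.01–100 µM) for 72 h at 37 °C. Growth measured by MTT; IC50 from dose–response curves by linear regression, tetraplicates in two experiments.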
# [2] = test system: colorectal carcinoma (HT-29) cells; test: Antiproliferative MTT assay, HT-29; assay type: cell-based, human; conditions: Homo sapiens, HT-29, 72 h, 72 h incubation, MTT; mean ± SD
# Method in brief: as §1
# [3] = test system: MCF-7, CFPAC-1, HT-29, HepG2 tumor cell lines and HFF-1 fibroblasts; test: Antiproliferative activity, whole cell line panel; assay type: cell-based, human; conditions: tested cell lines
# Protocol: The human ATCC tumor cell lines breast adenocarcinoma (MCF7), colorectal carcinoma (HT-29), pancreatic ductal adenocarcinoma (CFPAC-1), hepatocellular carcinoma (HepG2), and normal skin fibroblasts (HFF) derived from ATCC (American Type Culture Collection) were cultured in Dulbecco’s Modified Eagle Medium (DMEM) or Minimum Essential Medium (MEM) supplemented with 10% fetal bovine serum (FBS), 2 mM L-glutamine, 100 U/mL penicillin, and 100 µg/mL streptomycin (Lonza, Basel, Switzerland) in a humidified atmosphere with 5% CO2 at 37 °C. For the experiment, carcinoma cell lines and normal human cell lines were seeded in 96-well microtiter plates at a density of 3000 cells per well and 5000 cells per well, respectively, depending on the doubling time of the specific cell line. The test substances were then added at fivefold, tenfold dilutions (0.01 to 100 µM), freshly prepared in the growth medium on the day of testing, and incubated for a further 72 h. After 72 h of incubation, the growth rate of the cells was determined using the MTT assay according to the manufacturer’s guidelines. […] The IC50 values were calculated from the dose–response curves using linear regression analysis. The experiment was performed in tetraplicates in two individual experiments.
# Newly synthesized compounds were evaluated for their cytotoxic activity in vitro against four human cancer cell lines, including human breast adenocarcinoma (MCF-7), ductal pancreatic adenocarcinoma (CFPAC-1), colorectal carcinoma (HT-29), and hepatocellular carcinoma (HepG2), as well as on non-cancerous skin fibroblasts (HFF-1), to check for non-specific toxicity. Furthermore, 5-Fluorouracil (5-FU) was used as a reference drug. The results are expressed as 50% inhibitory concentration (IC50) values and are listed in Table 2, Table 3, Table 4 and Table 5.
# [4] = test system: MDCKII-MDR1 cells (P-glycoprotein); test: MDCKII-MDR1 permeability assay; assay type: in vitro ADME, canine cells with over-expressed human MDR1 gene; conditions: permeability class
# Method in brief: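 Bidirectional transport across MDCKII cells overexpressing human MDR1, compounds 10 µM (1% DMSO) for 60 min at 37 °C, with and without 2 µM elacridar. Monolayer integrity checked by Lucifer yellow; compound concentrations quantified by LC-MS/MS (MRM).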
# [5] = Metabolic stability in mouse liver microsomes; assay type: in vitro ADME
# Excerpt: Mouse liver microsomes were obtained from Corning Life Sciences (Corning, NY, USA). DMSO, nicotinamide adenine dinucleotide phosphate (NADP), glucose-6-phosphate, glucose-6-phosphate dehydrogenase, magnesium chloride, propranolol, caffeine, diclofenac, and phosphate-buffered saline (PBS) were purchased from Sigma (St. Louis, MO, USA). Acetonitrile (ACN) and methanol (MeOH) were obtained from Merck (Darmstadt, Germany). Testosterone was purchased from Steraloids (Newport, RI, USA). Metabolic stability was assessed in mouse liver microsomes. Compounds (final concentration of 1 µM, 0.03% DMSO v/v) were incubated in duplicate in phosphate buffer (50 mM, pH 7.4) at 37 °C together with mouse liver microsomes in the absence and presence of the NADPH cofactor (0.5 mM nicotinamide adenine dinucleotide phosphate, 5 mM glucose-6-phosphate, 1.5 U/mL glucose-6-phosphate dehydrogenase, and 0.5 mM magnesium chloride). Incubation and sampling were performed on a Freedom EVO 200 (Tecan, Männedorf, CH, Switzerland) at […], 10, 20, 30, 45, and 60 min. The reaction was quenched using 3 volumes of a mixture of ACN/MeOH (2:1) containing internal standard (diclofenac), centrifuged, and the supernatants were analyzed using LC-MS/MS. The metabolic activity of the microsomes was verified via simultaneous analysis of several controls including testosterone, propranolol, and caffeine. The in vitro half-life (t1/2) was calculated using GraphPad Prism (v9.0 software) non-linear regression of % of parent compound remaining versus time. In vitro clearance, expressed as µL/min/mg, was estimated from the in vitro half-life (t1/2) and normalized for the protein amount in the incubation mixture, assuming 52.5 mg of protein per gram of liver and using constant values for mouse liver weight/body weight [87.5 g/kg] and mouse liver blood flow (LBF) [131 mL/min/kg].
# All samples were quantified using tandem mass spectrometry coupled to liquid chromatography. Samples were analyzed on a Sciex API4000 Triple Quadrupole Mass Spectrometer (Sciex, Division of MDS Inc., Toronto, Canada) coupled to a Shimadzu Nexera X2 UHPLC frontend (Kyoto, Japan). Samples were injected onto a UHPLC column (HALO2 C18, 2.1 × 20 mm, 2 µm or Luna Omega 1.6 µm Polar C18 100A, 30 × 2.1 mm) and eluted with a gradient at 50 °C. The mobile phase was composed of acetonitrile/water mixture (9/1, with 0.1% formic acid) and 0.1% formic acid in deionized water. The flow rate was 0.7 mL/min under gradient conditions, leading to a total run time of 1.5–2 min. A positive ion mode with turbo spray, an ion source temperature of 550 °C, and a dwell time of 150 ms were utilized for mass spectrometric detection. Quantitation was performed using multiple reaction monitoring (MRM) at the specific transitions for each compound.
IC50 [1] [µM],IC50 [2] [µM],"Clearance Values (CL) ([5]; predicted in vivo hepatic clearance from mouse liver microsome t1/2, 1 µM compound) [%]",Clearance Class. ([5]; mouse liver microsomes),Structure (SMILES),SI (MCF-7) ([1]; SI = [IC50 HFF]/[IC50 MCF-7]),antiproliferative activity (in words) [3],Permeability [4]
0.5 ± 0.1,26 ± 1.2,54,–,"OCC(c1ccc(C(F)(F)F)cc1)n1cc(Cn2ccc3c(Cl)ncnc32)nn1 (stereo not drawn) [Compound 45a, 4-Chloro-7-((1-(2-hydroxy-1-(4-(trifluoromethyl)phenyl)ethyl)-1H-1,2,3-triazol-4-yl)methyl)-7H-pyrrolo[2,3-d]pyrimidine]",40,submicromolar antiproliferative activity,good membrane permeability; also recorded: MODERATE
46,10 ± 3.2,–,LOW (<30% low),"OC(Cn1cc(Cn2cnc3c(Cl)nccc32)nn1)c1ccc(Br)cc1 (stereo not drawn) [Compound 49b, 4-Chloro-1-((1-(2-hydroxy-2-(4-bromophenyl)ethyl)-1H-1,2,3-triazol-4-yl)methyl)-1H-imidazo[4,5-c]pyridine]",–,–,–

# Reference: paper PMC11940194, “Synthesis, Antiproliferative Activity, and ADME Profiling of Novel Racemic and Optically Pure Aryl-Substituted Purines and Purine Bioisosteres” (Biomolecules, 2025)
